Source: patent US12728177B2, “Disinfectant composition with rapid antiviral efficacy” (priority 2015, dated 2026)
Where a name gives a salt, the structure may show the parent alone.

System: Bacteriophage Phi X174 (ATCC 13706-81)
Assay: Virucidal infectivity (percent reduction in virus infectivity, E. coli outgrowth with resazurin dye);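 further: exposed phage diluted into broth, E. coli outgrowth followed 16-24 h at 37 °C by fluorescence rate, unexposed phage set as 100% signal, phage-free as 0%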
Settings: 10-minute exposure
[1] = secondary agent 3 mM + Maleic Acid 3 mM
[2] = secondary agent 3 mM + Phosphonc Acid 50-150 mM
[3] = secondary agent 3 mM + Sulfosuccinic Acid 10-32 mM
[4] = secondary agent 9 mM + Maleic Acid 3 mM
[5] = secondary agent 9 mM + Phosphonc Acid 50-150 mM
[6] = secondary agent 9 mM + Sulfosuccinic Acid 10-32 mM
[7] = secondary agent 28 mM + Maleic Acid 3 mM
[8] = secondary agent 28 mM + Phosphonc Acid 50-150 mM
[9] = secondary agent 28 mM + Sulfosuccinic Acid 10-32 mM
[10] = secondary agent 85 mM + Maleic Acid 3 mM
[11] = secondary agent 85 mM + Phosphonc Acid 50-150 mM
[12] = secondary agent 85 mM + Sulfosuccinic Acid 10-32 mM

Method: Bacteriophage Phi X174 (ATCC 13706-81) was added 1:10 (−108 plaque forming units (PFU) per sample) into a solution containing the composition of interest. Following a 10-minute exposure, the sample was transferred 1:10 into Tryptic Soy Broth (TSB). Following 10 minutes in TSB, a second 1:10 dilution was completed into an outgrowth solution for the Phi X174 host (E. coli ATCC 13706) that contained TSB and a resazurin dye. E. coli outgrowth was then monitored at 37° C. for 16-24 hours and the rate of fluorescence development was calculated. The rate observed when Phi X174 was not exposed to any composition represented a 100% Phi X174 signal. The rate observed without Phi X174 present represented a “0% signal.” The rate obtained following Phi X174 exposure to a given composition was compared to the signal obtained with no exposure to calculate the “percent reduction in virus infectivity.”

In the case of `N=C(N)NN` [Aminoguanidine Hydrochloride], the “% Reduction, Secondary Antiviral Agent Alone” value (from here on “% Reduction”) (agent alone 6 mM) is reported as 2%, the “% Reduction” value (agent alone 18 mM) is reported as 7% and the “% Reduction” value (agent alone 53 mM) is reported as 4%. The “% Reduction” value (agent alone 158 mM) was 1%, the “reduction in virus infectivity, in Combination with Maleic Acid (3 mM)” value (“reduction in virus infectivity … (3 mM)” below) [1] was 12% and the “reduction in virus infectivity, in Combination with Phosphonc Acid (50-150 mM)” value (“reduction in virus infectivity … (50-150 mM)” for short) [2] was 50%. The “reduction in virus infectivity, in Combination with Sulfosuccinic Acid (10-32 mM)” value (from here on “reduction in virus infectivity … (10-32 mM)”) [3] was 0%, the “reduction in virus infectivity … (3 mM)” value [4] was 4% and the “reduction in virus infectivity … (50-150 mM)” value [5] was 86%. For the same compound, the “reduction in virus infectivity … (10-32 mM)” value [6] was 0%, the “reduction in virus infectivity … (3 mM)” value [7] was 0% and the “reduction in virus infectivity … (50-150 mM)” value [8] was 50%. The “reduction in virus infectivity … (10-32 mM)” value [9] was 4%, the “reduction in virus infectivity … (3 mM)” value [10] was 0% and the “reduction in virus infectivity … (50-150 mM)” value [11] was 99%. For the same compound, the “reduction in virus infectivity … (10-32 mM)” value [12] was 13%.
`[Cl][Cu][Cl]` [Copper (II) Chionde] was tested, and the “% Reduction” value (agent alone 1 mM) was 20%, the “% Reduction” value (agent alone 4 mM) was 18% and the “% Reduction” value (agent alone 9 mM) was 23%. The “% Reduction” value (agent alone 27 mM) was 99%, the “reduction in virus infectivity … (3 mM)” value (secondary agent 26 mM + Maleic Acid 3 mM) was 70% and the “reduction in virus infectivity … (50-150 mM)” value (secondary agent 26 mM + Phosphonc Acid 50-150 mM) was 99%. The “reduction in virus infectivity … (10-32 mM)” value (secondary agent 26 mM + Sulfosuccinic Acid 10-32 mM) was 99%, the “reduction in virus infectivity … (3 mM)” value (secondary agent 1-3 mM + Maleic Acid 3 mM) was 72% and the “reduction in virus infectivity … (50-150 mM)” value (secondary agent 1-3 mM + Phosphonc Acid 50-150 mM) was 44%. For the same compound, the “reduction in virus infectivity … (10-32 mM)” value (secondary agent 1-3 mM + Sulfosuccinic Acid 10-32 mM) was 94%, the “reduction in virus infectivity … (3 mM)” value (secondary agent 4-6 mM + Maleic Acid 3 mM) was 57% and the “reduction in virus infectivity … (50-150 mM)” value (secondary agent 4-6 mM + Phosphonc Acid 50-150 mM) was 87%. For the same compound, the “reduction in virus infectivity … (10-32 mM)” value (secondary agent 4-6 mM + Sulfosuccinic Acid 10-32 mM) was 96%, the “reduction in virus infectivity … (3 mM)” value (secondary agent 11-13 mM + Maleic Acid 3 mM) was 38% and the “reduction in virus infectivity … (50-150 mM)” value (secondary agent 11-13 mM + Phosphonc Acid 50-150 mM) was 80%. The “reduction in virus infectivity … (10-32 mM)” value (secondary agent 11-13 mM + Sulfosuccinic Acid 10-32 mM) was 99%.
`CCCCCCCCCCO[C@@H]1O[C@H](CO)[C@@H](O)[C@H](O)[C@H]1O` [EcoSense 3000, Decyl Glucoside] was tested, and the “% Reduction” value (agent alone 8 mM) was 14%, the “% Reduction” value (agent alone 23 mM) was 0% and the “% Reduction” value (agent alone 69 mM) was 0%. The “% Reduction” value (agent alone 207 mM) was 0%, the “reduction in virus infectivity … (3 mM)” value (secondary agent 0.3 mM + Maleic Acid 3 mM) was 0% and the “reduction in virus infectivity … (3 mM)” value (secondary agent 1 mM + Maleic Acid 3 mM) was 0%. For the same compound, the “reduction in virus infectivity … (3 mM)” value (secondary agent 7 mM + Maleic Acid 3 mM) was 0% and the “reduction in virus infectivity … (3 mM)” value (secondary agent 37 mM + Maleic Acid 3 mM) was 0%.
`N=C(N)N` [Guanidine Hydrochloride] was tested, and the “% Reduction” value (agent alone 6 mM) was 0%, the “% Reduction” value (agent alone 18 mM) was 0% and the “% Reduction” value (agent alone 55 mM) was 0%. For the same compound, the “% Reduction” value (agent alone 164 mM) was 0%, the “reduction in virus infectivity … (3 mM)” value [1] was 0% and the “reduction in virus infectivity … (50-150 mM)” value [2] was 40%. For the same compound, the “reduction in virus infectivity … (10-32 mM)” value [3] was 10%, the “reduction in virus infectivity … (3 mM)” value (secondary agent 10 mM + Maleic Acid 3 mM) was 0% and the “reduction in virus infectivity … (50-150 mM)” value (secondary agent 10 mM + Phosphonc Acid 50-150 mM) was 34%. The “reduction in virus infectivity … (10-32 mM)” value (secondary agent 10 mM + Sulfosuccinic Acid 10-32 mM) was 12%, the “reduction in virus infectivity … (3 mM)” value (secondary agent 29 mM + Maleic Acid 3 mM) was 0% and the “reduction in virus infectivity … (50-150 mM)” value (secondary agent 29 mM + Phosphonc Acid 50-150 mM) was 34%. For the same compound, the “reduction in virus infectivity … (10-32 mM)” value (secondary agent 29 mM + Sulfosuccinic Acid 10-32 mM) was 1%, the “reduction in virus infectivity … (3 mM)” value (secondary agent 86 mM + Maleic Acid 3 mM) was 0% and the “reduction in virus infectivity … (50-150 mM)” value (secondary agent 86 mM + Phosphonc Acid 50-150 mM) was 46%. For the same compound, the “reduction in virus infectivity … (10-32 mM)” value (secondary agent 86 mM + Sulfosuccinic Acid 10-32 mM) was 0%.
For `CCCCCCCC/C=C\CCCCCCCC(=O)N(C)CCS(=O)(=O)[O-].[Na+]` [Hostapon TPHC, Sodium Methyl Oleoyl Taurate], the “% Reduction” value (agent alone 25 mM) was 0%, the “% Reduction” value (agent alone 42 mM) was 0% and the “% Reduction” value (agent alone 50 mM) was 0%. For the same compound, the “% Reduction” value (agent alone 67 mM) was 0%, the “reduction in virus infectivity … (3 mM)” value (secondary agent 25 mM + Maleic Acid 3 mM) was 0% and the “reduction in virus infectivity … (50-150 mM)” value (secondary agent 25 mM + Phosphonc Acid 50-150 mM) was 99%. For the same compound, the “reduction in virus infectivity … (10-32 mM)” value (secondary agent 25 mM + Sulfosuccinic Acid 10-32 mM) was 99%, the “reduction in virus infectivity … (3 mM)” value (secondary agent 42 mM + Maleic Acid 3 mM) was 0% and the “reduction in virus infectivity … (50-150 mM)” value (secondary agent 42 mM + Phosphonc Acid 50-150 mM) was 96%. The “reduction in virus infectivity … (10-32 mM)” value (secondary agent 42 mM + Sulfosuccinic Acid 10-32 mM) was 88%, the “reduction in virus infectivity … (3 mM)” value (secondary agent 50 mM + Maleic Acid 3 mM) was 0% and the “reduction in virus infectivity … (50-150 mM)” value (secondary agent 50 mM + Phosphonc Acid 50-150 mM) was 99%. The “reduction in virus infectivity … (10-32 mM)” value (secondary agent 50 mM + Sulfosuccinic Acid 10-32 mM) was 50%, the “reduction in virus infectivity … (3 mM)” value (secondary agent 67 mM + Maleic Acid 3 mM) was 0% and the “reduction in virus infectivity … (50-150 mM)” value (secondary agent 67 mM + Phosphonc Acid 50-150 mM) was 99%. The “reduction in virus infectivity … (10-32 mM)” value (secondary agent 67 mM + Sulfosuccinic Acid 10-32 mM) was 1%.
With `CCCCCCCCCC[N+](C)(C)[O-]` [Mackamine C-10, Decylamina oxide] the “% Reduction” value (agent alone 6 mM) was 7%, the “% Reduction” value (agent alone 18 mM) was 4% and the “% Reduction” value (agent alone 53 mM) was 11%. The “% Reduction” value (agent alone 183 mM) was 30%, the “reduction in virus infectivity … (3 mM)” value (secondary agent 30 mM + Maleic Acid 3 mM) was 10% and the “reduction in virus infectivity … (50-150 mM)” value (secondary agent 30 mM + Phosphonc Acid 50-150 mM) was 0%. The “reduction in virus infectivity … (10-32 mM)” value (secondary agent 30 mM + Sulfosuccinic Acid 10-32 mM) was 6%, the “reduction in virus infectivity … (3 mM)” value (secondary agent 49 mM + Maleic Acid 3 mM) was 35% and the “reduction in virus infectivity … (50-150 mM)” value (secondary agent 49 mM + Phosphonc Acid 50-150 mM) was 0%. For the same compound, the “reduction in virus infectivity … (10-32 mM)” value (secondary agent 49 mM + Sulfosuccinic Acid 10-32 mM) was 0%, the “reduction in virus infectivity … (3 mM)” value (secondary agent 59 mM + Maleic Acid 3 mM) was 64% and the “reduction in virus infectivity … (50-150 mM)” value (secondary agent 59 mM + Phosphonc Acid 50-150 mM) was 0%. For the same compound, the “reduction in virus infectivity … (10-32 mM)” value (secondary agent 59 mM + Sulfosuccinic Acid 10-32 mM) was 2%, the “reduction in virus infectivity … (3 mM)” value (secondary agent 79 mM + Maleic Acid 3 mM) was 62% and the “reduction in virus infectivity … (50-150 mM)” value (secondary agent 79 mM + Phosphonc Acid 50-150 mM) was 0%. The “reduction in virus infectivity … (10-32 mM)” value (secondary agent 79 mM + Sulfosuccinic Acid 10-32 mM) was 0%.
In the case of `O=C(O)/C=C\C(=O)O` [Maleic Acid], the “reduction in virus infectivity, Primary Antiviral Agent without secondary agent (None)” value (Maleic Acid 3 mM, no secondary agent) is reported as 1-8%.
In the case of `NC(N)=O` [Urea], the “% Reduction” value (agent alone 7 mM) is reported as 0%, the “% Reduction” value (agent alone 20 mM) is reported as 0% and the “% Reduction” value (agent alone 60 mM) is reported as 0%. The “% Reduction” value (agent alone 180 mM) was 0%, the “reduction in virus infectivity … (3 mM)” value [1] was 8% and the “reduction in virus infectivity … (50-150 mM)” value [2] was 57%. For the same compound, the “reduction in virus infectivity … (10-32 mM)” value [3] was 1%, the “reduction in virus infectivity … (3 mM)” value [4] was 6% and the “reduction in virus infectivity … (50-150 mM)” value [5] was 71%. The “reduction in virus infectivity … (10-32 mM)” value [6] was 0%, the “reduction in virus infectivity … (3 mM)” value [7] was 1% and the “reduction in virus infectivity … (50-150 mM)” value [8] was 53%. The “reduction in virus infectivity … (10-32 mM)” value [9] was 25%, the “reduction in virus infectivity … (3 mM)” value [10] was 0% and the “reduction in virus infectivity … (50-150 mM)” value [11] was 56%. For the same compound, the “reduction in virus infectivity … (10-32 mM)” value [12] was 0%.
